Tests used:
[1] = target: T1, NMDA Receptor (NR1/NR2B Receptor) (Rattus norvegicus, UniProt P35439+Q00960); assay: Experiment of binding to NMDA receptor (NR1/NR2B receptor), [3H]-Ifenprodil competition, rat cerebral cortex membrane; conditions: [3H]-Ifenprodil 5 nM, GBR-12909 3 μM, ice temperature 120 minutes
T1 construct: this was used as a membrane specimen in an experiment; from tissue; host or cells: rat cerebral cortex membranes
Method: Using Ifenprodil which is a NR1/NR2B subtype receptor-specific antagonist as a ligand, an experiment of receptor competition with a test compound was performed.
A male Slc:Wistar rat was used as an animal, a decapitated brain was isolated, and cerebral cortex was fractionated. The cerebral cortex was homogenized with a 20-fold amount of an ice-cooled 50 mM Tris/HCl buffer (pH 7.4), and centrifuged at 4° C. and 27,500×g for 10 minutes. The resulting precipitate was suspended in the same buffer, and the suspension was centrifuged again. This procedure was repeated three times, and the resulting precipitate was suspended in a buffer, and stored at −80° C. Immediately before an experiment, the frozen suspension was thawed at room temperature, and centrifuged at 4° C. and 27,500×g for 10 minutes, and the resulting precipitate was suspended in a buffer. The suspension was further diluted 10-fold with a buffer, and this was used as a membrane specimen in an experiment.
In a binding experiment, to 470 μl of the membrane specimen were added 10 μl of different concentrations of a test compound, 10 μl of a labeled ligand [3H]-Ifenprodil and 10 μl of GBR-12909, and this was incubated at an ice temperature for 120 minutes. A concentration of [3H]-Ifenprodil of the labeled ligand was finally 5 nM, and a concentration of GBR-12909 was finally 3 μM. For measuring a total binding amount, DMSO as a solvent was used and, for measuring a non-specific binding amount, 100 μM of Ifenprodil was used. In addition, GBR-12909 was added in order to block binding of [3H]-Ifenprodil to a non-polyamine-sensitive site. After incubation, a bound body and a free body were separated using a Whatman GF/C filter (manufactured by Whatman), and the filter was washed with 2.5 ml of an ice-cooled buffer four times. The filter was immersed in a liquid scintillation (Clear-sol I, manufactured by Nacalai tesque) in a vial bottle, and radioactivity (dpm) was measured with a liquid scintillation counter. From a measured value, a binding inhibition rate (%) was obtained by the following equation, and a dose at which binding is inhibited 50% (IC50) was calculated. A formula of GBR-12909 (Vanoxerine) is shown below.
Binding inhibition rate(%)=100−[(binding amount in presence of test compound−non-specific amount)/(total binding amount−non-specific binding amount)]×100

[2] = target: T2, mouse NMDA receptor (NR1 subunit and NR2B subunit co-expressed in HEK293 cells) (Mus musculus, UniProt P35438+Q01097); assay: Expression of NMDA receptor and measurement of Ca ion flow in amount (HEK293 cells, Fluo-3/AM, FDSS3000); type: cell-based; conditions: Ca ion flow in induced with glutamic acid 20 μM/glycine 2 μM, read-out: Ca2+ 1050
T2 construct: expressed in transfected cells; host or cells: HEK293 cells, transient, pcDNA 3.1 plasmids
Method: Test Example 2 Expression of NMDA receptor and measurement of Ca ion flow in amount
A complementary DNA (cDNA) of a mouse NMDA receptor subunit was transiently introduced into HEK293 cells and, after one day from introduction, change in a glutamic acid/glycine-induced intracellular Ca amount was measured using a Ca ion reactive fluorescent dye.
HEK293 cells were cultured and passaged using a modified Dulbecco's Eagle medium (DMEM, low glucose).
20,000/well of HEK293 cells were seeded on a 96-well plate, a NR1 subunit and a NR2B subunit of a NMDA receptor incorporated into pcDNA 3.1 plasmid were transiently introduced into cells, and co-expression of subunits was performed. An introduction amount of a DNA was such that the NR1 subunit was 0.025 μg, and the NR2B subunit was 0.075 μg per well. For cells after introduction, cell death was inhibited using 50 μM of a NMDA receptor antagonist MK-801.
For adjusting a test compound and washing cells, Krebs Ringer Hepes buffer (KRH, Ca: 5 mM) was used.
One day after introduction, the NMDA receptor antagonist MK-801 was washed off using the KRH buffer, and a Ca ion indicative fluorescent dye Fluo-3/AM was made to be taken into cells. Flow in of a Ca ion was induced with glutamic acid 20 μM/glycine 2 μM. Change in a fluorescence amount due to intracellular Ca ion flow in was measured at excitation 480 nm using a fluorescence imaging system FDSS3000.
From a measured value of the test compound, a Ca ion flow in inhibitory rate (%) was obtained by the following equation, and a dose at which flow in is 50% inhibited (IC50) was calculated.
Ca ion flow in inhibitory rate(%)=100−[(fluorescence amount in presence of test compound−background fluorescence amount)/(total fluorescence amount[…]background fluorescence amount)]×100

T2 sequence (Q01097 27-1482, other chains not shown): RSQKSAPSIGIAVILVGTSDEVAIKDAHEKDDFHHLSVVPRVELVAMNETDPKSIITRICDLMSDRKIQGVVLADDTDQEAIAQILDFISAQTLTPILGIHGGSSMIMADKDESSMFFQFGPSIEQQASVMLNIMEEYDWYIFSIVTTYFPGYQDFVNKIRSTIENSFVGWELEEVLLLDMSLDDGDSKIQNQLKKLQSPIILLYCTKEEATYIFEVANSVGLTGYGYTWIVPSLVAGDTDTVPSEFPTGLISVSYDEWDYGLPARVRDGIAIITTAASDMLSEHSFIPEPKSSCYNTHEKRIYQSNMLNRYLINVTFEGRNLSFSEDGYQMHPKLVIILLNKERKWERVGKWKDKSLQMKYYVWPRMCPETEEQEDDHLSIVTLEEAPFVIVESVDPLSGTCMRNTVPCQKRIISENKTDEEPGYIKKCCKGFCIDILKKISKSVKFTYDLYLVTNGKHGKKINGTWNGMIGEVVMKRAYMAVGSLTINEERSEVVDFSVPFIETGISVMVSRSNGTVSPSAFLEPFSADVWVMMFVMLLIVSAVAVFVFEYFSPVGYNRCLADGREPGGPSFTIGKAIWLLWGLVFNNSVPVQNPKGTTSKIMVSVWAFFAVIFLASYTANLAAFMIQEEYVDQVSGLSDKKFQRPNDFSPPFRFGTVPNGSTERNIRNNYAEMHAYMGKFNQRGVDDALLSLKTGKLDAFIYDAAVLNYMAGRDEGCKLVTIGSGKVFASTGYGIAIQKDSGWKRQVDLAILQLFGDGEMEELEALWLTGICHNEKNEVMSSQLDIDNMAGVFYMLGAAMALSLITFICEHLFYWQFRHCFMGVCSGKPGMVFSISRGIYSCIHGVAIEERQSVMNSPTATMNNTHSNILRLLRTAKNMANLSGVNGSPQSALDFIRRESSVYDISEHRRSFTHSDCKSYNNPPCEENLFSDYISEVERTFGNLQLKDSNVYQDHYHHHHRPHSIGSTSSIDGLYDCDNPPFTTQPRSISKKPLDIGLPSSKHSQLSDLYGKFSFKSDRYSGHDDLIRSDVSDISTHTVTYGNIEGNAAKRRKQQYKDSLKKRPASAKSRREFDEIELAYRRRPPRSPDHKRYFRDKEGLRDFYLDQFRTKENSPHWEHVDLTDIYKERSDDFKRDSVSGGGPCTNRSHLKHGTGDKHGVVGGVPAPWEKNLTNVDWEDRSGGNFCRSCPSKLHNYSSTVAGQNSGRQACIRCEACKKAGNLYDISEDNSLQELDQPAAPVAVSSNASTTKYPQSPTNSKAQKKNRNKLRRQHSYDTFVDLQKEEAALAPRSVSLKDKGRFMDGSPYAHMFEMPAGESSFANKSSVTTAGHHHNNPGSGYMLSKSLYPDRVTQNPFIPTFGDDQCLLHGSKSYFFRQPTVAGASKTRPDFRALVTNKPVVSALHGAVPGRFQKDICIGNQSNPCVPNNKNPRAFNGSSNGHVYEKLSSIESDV
T1 sequence (Q00960 27-1482, other chains not shown): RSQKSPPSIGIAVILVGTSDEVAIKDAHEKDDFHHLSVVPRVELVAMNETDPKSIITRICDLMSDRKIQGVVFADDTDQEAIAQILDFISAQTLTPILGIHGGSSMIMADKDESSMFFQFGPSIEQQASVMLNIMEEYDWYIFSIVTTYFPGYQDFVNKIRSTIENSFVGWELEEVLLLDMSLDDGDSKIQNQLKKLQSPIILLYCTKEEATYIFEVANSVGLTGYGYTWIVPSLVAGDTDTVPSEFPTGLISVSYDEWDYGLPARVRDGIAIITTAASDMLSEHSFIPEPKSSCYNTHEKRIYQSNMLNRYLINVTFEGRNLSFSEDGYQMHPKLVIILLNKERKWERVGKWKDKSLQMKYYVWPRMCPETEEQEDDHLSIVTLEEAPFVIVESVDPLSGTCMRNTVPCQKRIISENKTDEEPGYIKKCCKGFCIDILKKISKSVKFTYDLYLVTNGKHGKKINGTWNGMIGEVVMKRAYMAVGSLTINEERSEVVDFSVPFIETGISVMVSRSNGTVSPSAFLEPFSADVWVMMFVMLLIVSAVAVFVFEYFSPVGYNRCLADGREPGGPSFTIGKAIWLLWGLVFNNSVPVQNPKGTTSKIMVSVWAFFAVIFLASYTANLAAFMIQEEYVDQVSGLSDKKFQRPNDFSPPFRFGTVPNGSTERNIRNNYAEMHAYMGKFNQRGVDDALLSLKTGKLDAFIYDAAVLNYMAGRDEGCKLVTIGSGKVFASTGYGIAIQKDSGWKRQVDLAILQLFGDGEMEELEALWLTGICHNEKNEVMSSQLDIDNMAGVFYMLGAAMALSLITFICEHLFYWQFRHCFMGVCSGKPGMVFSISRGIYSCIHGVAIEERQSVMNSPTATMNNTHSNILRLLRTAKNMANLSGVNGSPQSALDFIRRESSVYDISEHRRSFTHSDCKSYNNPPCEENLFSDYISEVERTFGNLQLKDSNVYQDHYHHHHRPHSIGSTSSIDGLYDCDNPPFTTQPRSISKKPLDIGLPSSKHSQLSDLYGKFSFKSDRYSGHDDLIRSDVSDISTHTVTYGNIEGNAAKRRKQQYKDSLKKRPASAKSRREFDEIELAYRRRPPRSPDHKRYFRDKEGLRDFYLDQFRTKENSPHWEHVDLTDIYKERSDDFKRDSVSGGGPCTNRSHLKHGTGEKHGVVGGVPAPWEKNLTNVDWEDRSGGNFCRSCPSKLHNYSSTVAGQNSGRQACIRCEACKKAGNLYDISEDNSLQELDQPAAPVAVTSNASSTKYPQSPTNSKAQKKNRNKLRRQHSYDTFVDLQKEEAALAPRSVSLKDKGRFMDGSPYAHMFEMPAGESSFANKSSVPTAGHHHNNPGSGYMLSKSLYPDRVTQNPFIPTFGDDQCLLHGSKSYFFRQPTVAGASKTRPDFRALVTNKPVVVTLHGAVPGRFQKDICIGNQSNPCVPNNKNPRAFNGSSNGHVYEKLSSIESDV

Row | melting point [°C] | IC50 [1] [µM] | IC50 [2] [µM] | SMILES
1 | 187 to 189 |  |  | O=C(CCNc1ccc2[nH]c(=O)oc2c1)N1CCN(c2ccc(Cl)c(F)c2)CC1 [Compound I-2]
2 | 130 to 132 |  |  | O=C(CNc1ccc2[nH]c(=O)oc2c1)N1CCN(c2ccc(F)c(Cl)c2)CC1 [Compound I-3]
3 |  | 0.031 | 0.007 | COc1c(F)cc(N2CCN(C(=O)CNc3ccc4[nH]c(=O)oc4c3)[C@H](C)C2)cc1F [Compound I-9]
4 |  |  | 0.108 | O=C(Nc1ccc2[nH]c(=O)oc2c1)C(=O)N1CCN(c2cc(F)cc(F)c2)CC1 [Compound I-12]
5 |  | 0.114 | 0.014 | C[C@@H]1CN(C(=O)C(=O)Nc2ccc3[nH]c(=O)oc3c2)CCN1c1cc(F)cc(F)c1 [Compound I-13]
6 |  |  | 0.048 | C[C@@H]1CN(c2cc(F)cc(F)c2)CCN1C(=O)C(=O)Nc1ccc2[nH]c(=O)oc2c1 [Compound I-14]
7 |  | 0.039 | 0.005 | C[C@@H]1CN(c2ccc(Cl)cc2)CCN1C(=O)CNc1ccc2[nH]c(=O)oc2c1 [Compound I-15]
8 |  | 0.072 | 0.012 | C[C@@H]1CN(C(=O)CNc2ccc3[nH]c(=O)oc3c2)CCN1c1ccc(Cl)cc1 [Compound I-16]
9 |  | 0.024 | 0.003 | C[C@@H]1CN(C(=O)CNc2ccc3[nH]c(=O)oc3c2)CCN1c1ccc(Cl)c(F)c1 [Compound I-17]
10 |  | 0.107 | 0.048 | Cc1ccc(N2CCN(C(=O)C(=O)Nc3ccc4[nH]c(=O)oc4c3)CC2)cc1 [Compound I-18]
11 |  |  | 0.041 | COCc1ccc(N2CCN(C(=O)C(=O)Nc3ccc4[nH]c(=O)oc4c3)C[C@H]2C)cc1 [Compound I-20]
12 |  |  | 0.047 | O=C(Nc1ccc2[nH]c(=O)oc2c1)C(=O)N1CCN(c2ccc(OCC(F)(F)F)cc2)CC1 [Compound I-21]
13 |  | 0.085 | 0.022 | Cc1ccc(N2CCN(C(=O)C(=O)Nc3ccc4[nH]c(=O)oc4c3)[C@H](C)C2)cc1 [Compound I-22]
14 |  |  | 0.022 | C[C@@H]1CN(C(=O)C(=O)Nc2ccc3[nH]c(=O)oc3c2)CCN1c1ccc(OCC(F)(F)F)cc1 [Compound I-23]
15 |  | 0.105 | 0.019 | C[C@@H]1CN(c2ccc(OCC(F)(F)F)cc2)CCN1C(=O)C(=O)Nc1ccc2[nH]c(=O)oc2c1 [Compound I-24]
16 |  |  | 0.009 | C[C@@H]1CN(C(=O)C(=O)Nc2cnc3[nH]c(=O)oc3c2)CCN1c1ccc(OC(F)(F)F)cc1 [Compound I-25]
17 |  | 0.014 | 0.007 | Cc1ccc(N2CCN(C(=O)C(=O)Nc3ccc4[nH]c(=O)oc4c3)CC2)cc1F [Compound I-26]
18 |  | 0.035 | 0.002 | Cc1ccc(N2CCN(C(=O)C(=O)Nc3ccc4[nH]c(=O)oc4c3)[C@H](C)C2)cc1F [Compound I-27]
19 |  | 0.068 | 0.003 | Cc1ccc(N2CCN(C(=O)C(=O)Nc3ccc4[nH]c(=O)oc4c3)C[C@H]2C)cc1F [Compound I-28]
20 |  | 0.129 | 0.009 | Cc1ccc(N2CCN(C(=O)C(=O)Nc3ccc4[nH]c(=O)oc4c3)C[C@H]2C)cc1 [Compound I-29]
21 |  |  | 0.031 | C[C@@H]1CN(C(=O)CNc2ccc3[nH]c(=O)oc3c2)CCN1c1ccc(OC(F)(F)F)cc1 [Compound I-30]
22 |  |  | 0.106 | CO/N=C/c1ccc(N2CCN(C(=O)C(=O)Nc3ccc4[nH]c(=O)oc4c3)[C@H](C)C2)cc1 [Compound I-31]
23 |  |  | 0.105 | COCc1ccc(N2CCN(C(=O)C(=O)Nc3ccc4[nH]c(=O)oc4c3)[C@H](C)C2)cc1 [Compound I-32]

Row | melting point [°C] | IC50 [1] [µM] | IC50 [2] [µM] | SMILES
24 |  | 0.059 | 0.026 | COCc1ccc(N2CCN(C(=O)C(=O)Nc3ccc4[nH]c(=O)oc4c3)CC2)cc1F [Compound I-33]
25 |  | 0.099 | 0.032 | COCc1ccc(N2CCN(C(=O)C(=O)Nc3ccc4[nH]c(=O)oc4c3)[C@H](C)C2)cc1F [Compound I-34]
26 |  | 0.02 | 0.009 | Cc1ccc(N2CCN(C(=O)C(=O)Nc3ccc4[nH]c(=O)oc4c3)CC2)cc1Cl [Compound I-35]
27 |  | 0.071 |  | C[C@@H]1CN(c2ccc(OC(F)(F)F)cc2)CCN1C(=O)CNc1ccc2[nH]c(=O)oc2c1 [Compound I-36]
28 |  | 0.029 | 0.009 | Cc1cc(N2CCN(C(=O)C(=O)Nc3ccc4[nH]c(=O)oc4c3)CC2)ccc1Cl [Compound I-37]
29 |  | 0.041 | 0.007 | Cc1ccc(N2CCN(C(=O)C(=O)Nc3ccc4[nH]c(=O)oc4c3)[C@H](C)C2)cc1Cl [Compound I-38]
30 |  | 0.08 | 0.009 | Cc1ccc(N2CCN(C(=O)C(=O)Nc3ccc4[nH]c(=O)oc4c3)C[C@H]2C)cc1Cl [Compound I-39]
31 |  | 0.067 | 0.005 | Cc1cc(N2CCN(C(=O)C(=O)Nc3ccc4[nH]c(=O)oc4c3)C[C@H]2C)ccc1Cl [Compound I-41]
32 |  | 0.065 | 0.021 | COc1c(F)cc(N2CCN(C(=O)CNc3ccc4[nH]c(=O)oc4c3)C[C@H]2C)cc1F [Compound I-43]
33 |  |  | 0.057 | Cc1cc(N2CCN(C(=O)C(=O)Nc3ccc4[nH]c(=O)oc4c3)[C@H](C)C2)ccc1F [Compound I-45]
34 |  |  | 0.083 | Cc1cc(N2CCN(C(=O)C(=O)Nc3ccc4[nH]c(=O)oc4c3)CC2)ccc1F [Compound I-46]
35 |  |  | 0.019 | Cc1cc(N2CCN(C(=O)C(=O)Nc3ccc4[nH]c(=O)oc4c3)C[C@H]2C)ccc1F [Compound I-49]
36 |  | 0.064 | 0.005 | C[C@@H]1CN(C(=O)C(=O)Nc2ccc3[nH]c(=O)oc3c2)CCN1c1ccc(C(F)(F)F)cc1 [Compound I-50]
37 |  | 0.09 | 0.005 | CC[C@@H]1CN(C(=O)C(=O)Nc2ccc3[nH]c(=O)oc3c2)CCN1c1ccc(Cl)cc1 [Compound I-51]
38 |  | 0.081 | 0.008 | CC[C@@H]1CN(c2ccc(Cl)cc2)CCN1C(=O)C(=O)Nc1ccc2[nH]c(=O)oc2c1 [Compound I-52]
39 |  | 0.134 | 0.033 | C[C@@H]1CN(c2ccc(Cl)cc2)CCN1CC(=O)Nc1ccc2[nH]c(=O)oc2c1 [Compound I-53]
40 |  |  | 0.052 | C[C@@H]1CN(c2ccc(F)c(Cl)c2)CCN1CC(=O)Nc1ccc2[nH]c(=O)oc2c1 [Compound I-54]
41 |  | 0.033 | 0.004 | C[C@@H]1CN(CC(=O)Nc2ccc3[nH]c(=O)oc3c2)CCN1c1ccc(Cl)c(F)c1 [Compound I-55]
42 |  | 0.044 | 0.012 | COc1c(F)cc(N2CCN(CC(=O)Nc3ccc4[nH]c(=O)oc4c3)CC2)cc1F [Compound I-56]
43 |  | 0.056 | 0.004 | COc1c(F)cc(N2CCN(CC(=O)Nc3ccc4[nH]c(=O)oc4c3)C[C@H]2C)cc1F [Compound I-57]
44 |  | 0.042 | 0.006 | C[C@@H]1CN(CC(=O)Nc2ccc3[nH]c(=O)oc3c2)CCN1c1ccc(Cl)cc1 [Compound I-59]
45 |  | 0.08 | 0.01 | Cc1cc(N2CCN(CC(=O)Nc3ccc4[nH]c(=O)oc4c3)C[C@H]2C)ccc1Cl [Compound I-60]
46 |  | 0.026 | 0.01 | O=C(NCCN1CCN(c2ccc(Cl)cc2)CC1)c1ccc2[nH]c(=O)oc2c1 [Compound I-65]

Reference: US20110251212A1, “PIPERAZINE DERIVATIVES” (SHIONOGI & CO., LTD., priority 2007, published 2011)
